Legend:
Test in all cases: relative viability (nuclei count vs DMSO), 5 days (fraction); higher = more cells survive
[1] = compound: Cc1nc(C(=O)NCC(=O)O)c(O)c2ccc(Oc3ccccc3)cc12 [FG-4592] + N=C(N)NC(=N)NCCc1ccccc1 [Phenformin] (partner 250 µM)
Procedure, shortened: (§1)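 Lung cancer cell lines in 1536-well plates got either a single drug or a fixed anchor-drug dose together with five library-drug doses (not always all listed) in √10 steps, by pin tool, on the day after seeding. Nuclei were counted after 5 days, and relative viability is the treated-to-vehicle ratio of nuclei counts. Values are medians of duplicate plates.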

[2] = compound: CC1=CC(=C(N1C2=CC=C(C=C2)Cl)C)C(=O)CN3CCCCC3 [IU1-47] + CC(C)C[C@H](NC(=O)[C@H](Cc1ccccc1)NC(=O)c1cnccn1)B(O)O [Bortezomib] (partner 0.002 µM)
Procedure, shortened: as §1

[3] = compound: Cc1nc(C(=O)NCC(=O)O)c(O)c2ccc(Oc3ccccc3)cc12 [FG-4592] + NC(=O)Nc1cc(-c2cccc(F)c2)sc1C(=O)N[C@H]1CCCNC1 [AZD7762] (partner 0.2 µM)
Procedure, shortened: as §1

[4] = compound: CC1=CC(=C(N1C2=CC=C(C=C2)Cl)C)C(=O)CN3CCCCC3 [IU1-47] + O=C(CCCCCCC(=O)Nc1ccccc1)NO [Vorinostat] (partner 1 µM)
Procedure, shortened: as §1

| Cell Line | relative viability ([1]; first compound 0.08 µM) | relative viability ([1]; first compound 0.253 µM) | relative viability ([1]; first compound 2.53 µM) | relative viability ([1]; first compound 8 µM) | relative viability ([2]; first compound 0.08 µM) | relative viability ([2]; first compound 0.253 µM) | relative viability ([2]; first compound 0.8 µM) | relative viability ([2]; first compound 2.53 µM) | relative viability ([2]; first compound 8 µM) | relative viability ([3]; first compound 0.08 µM) | relative viability ([3]; first compound 0.253 µM) | relative viability ([3]; first compound 0.8 µM) | relative viability ([3]; first compound 2.53 µM) | relative viability ([3]; first compound 8 µM) | relative viability ([4]; first compound 0.08 µM) | relative viability ([4]; first compound 0.253 µM) | relative viability ([4]; first compound 0.8 µM) | relative viability ([4]; first compound 2.53 µM) | relative viability ([4]; first compound 8 µM) | relative viability ([1]; first compound 0.8 µM) |
| --- | --- | --- | --- | --- | --- | --- | --- | --- | --- | --- | --- | --- | --- | --- | --- | --- | --- | --- | --- | --- |
| HCC-44 | 0.107 | 0.184 | 0.145 | 0.151 | 0.891 | 0.851 | 0.89 | 0.873 | 0.898 | 0.993 | 1.01 | 1.16 | 1.06 | 0.997 | 1.16 | 1.09 | 1.11 | 1.13 | 1.09 | – |
| HCC-827 | 0.37 | 0.376 | 0.367 | 0.401 | 1.22 | 1.12 | 1.05 | 1.08 | 1.11 | 0.23 | 0.173 | 0.326 | 0.184 | 0.22 | 0.966 | 1.08 | 1.02 | 0.879 | 0.558 | 0.38 |
| NCI-H1623 | 0.607 | 0.609 | 0.517 | 0.542 | – | – | – | – | – | – | – | – | – | – | – | – | – | – | – | 0.595 |
| NCI-H2347 | 0.284 | – | 0.5 | 0.441 | 0.913 | 0.76 | 0.892 | 0.827 | 0.746 | 0.72 | 0.546 | 0.724 | 0.85 | 0.744 | 0.668 | 0.628 | 0.662 | 0.444 | 0.528 | 0.376 |
| PC-14 | 0.628 | 0.505 | 0.667 | 0.558 | 1.12 | 0.833 | 0.957 | 0.942 | 0.697 | 0.356 | 0.341 | 0.284 | 0.342 | 0.282 | 0.757 | 0.756 | 0.734 | 0.49 | 0.573 | 0.411 |
| NCI-H1651 | 0.32 | 0.316 | 0.355 | 0.421 | 0.988 | 0.977 | 0.995 | 0.946 | 0.89 | 0.474 | 0.455 | 0.433 | 0.442 | 0.455 | 0.559 | 0.558 | 0.556 | 0.531 | 0.495 | 0.335 |
| HARA | 0.412 | 0.394 | 0.509 | 0.477 | 1.19 | 1.21 | 1.1 | 1.17 | 0.971 | – | – | – | 0.251 | 0.431 | 0.421 | 0.679 | 0.646 | 0.575 | 0.479 | 0.512 |
| NCI-H1650 | 0.464 | 0.448 | 0.586 | 0.51 | 0.194 | 0.171 | 0.22 | 0.203 | 0.195 | – | – | – | – | – | 0.631 | 0.523 | 0.62 | 0.564 | 0.722 | 0.338 |
| NCI-H1395 | 0.408 | 0.46 | 0.408 | 0.415 | – | – | – | – | – | 0.446 | 0.396 | 0.413 | 0.385 | 0.396 | 0.676 | 0.798 | 0.611 | 0.517 | 0.605 | 0.397 |
| LU99A | 0.839 | 0.774 | 0.82 | 0.921 | 1.12 | 1.23 | 1.06 | 1.12 | 1.09 | 0.37 | 0.387 | – | 0.381 | 0.346 | 0.557 | 0.513 | 0.5 | 0.579 | 0.426 | 0.706 |
| NCI-H1355 | 0.378 | 0.422 | 0.431 | 0.449 | 1.3 | 1.21 | 1.33 | 0.978 | 1.16 | 0.907 | 0.669 | – | 0.809 | 0.723 | 0.72 | 0.646 | 0.674 | – | 0.518 | 0.358 |
| NCI-H1563 | 0.663 | 0.735 | 0.665 | 0.603 | 0.822 | 0.831 | 0.885 | 0.775 | 0.552 | – | – | – | – | – | – | – | – | – | – | 0.684 |
| LK-2 | 0.365 | 0.449 | 0.33 | 0.264 | – | – | – | – | – | 0.273 | 0.355 | – | 0.358 | 0.342 | 0.21 | 0.195 | 0.175 | 0.331 | 0.274 | – |
| COR-L23 | 0.467 | 0.375 | 0.411 | 0.437 | 1.12 | 1.1 | 1.21 | 0.932 | 1.08 | – | – | – | – | – | 0.383 | 0.514 | 0.439 | 0.466 | 0.404 | 0.477 |
| SW 900 | 0.584 | 0.687 | 0.47 | 0.586 | – | – | – | – | – | – | 0.545 | – | 0.614 | 0.541 | 0.361 | – | 0.616 | 0.603 | 0.428 | 0.439 |
| NCI-H1648 | – | – | – | – | – | – | – | – | – | 0.622 | 0.662 | – | 0.714 | 0.921 | 0.455 | 0.402 | 0.999 | 0.265 | 0.399 | – |
| A549 | 0.166 | 0.154 | 0.191 | 0.216 | – | – | – | – | – | – | – | – | – | – | – | – | – | – | – | 0.159 |
